How the values were obtained:
[1] = tested on: cat flea, Ctenocephalides felis; test: Duration of efficacy of high doses of ectoparasiticides against the cat flea in cats (Example 5); assay type: in vivo
From the text: In this evaluation, 32 domestic shorthair cats of mixed sex, aged at least 6 months, were used to test the high doses of ectoparasiticides disclosed herein. Cats were free of ectoparasiticide treatment for 60 days prior to administration of the experimental treatments. No drugs, baths, shampoos, or pesticides were given to the cats during the preconditioning phase or during the course of the study other than what is described in the protocol. At least 36 cats were preconditioned for 7 days. On day −7, each cat was infested with 100 unfed cat fleas, Ctenocephalides felis. On Day −5, each cat was thoroughly examined and combed to remove and count fleas. 32 cats were ranked in descending order by flea count. From the ranking, the cats were divided into four blocks of eight cats each. The eight cats within each of the four blocks were randomly allocated to treatment groups (A-H).
Applications for groups B-H were administered using a disposable syringe. The dose was applied as a single spot on the dorsal neck at the base of the skull. Group A was left untreated. […] On Days 1 through 14 following administration of the treatments, cats were observed daily for reactions and formulation acceptability. Thereafter, cats were observed once daily for the remainder of the study. Cats were infested with 100 adult cat fleas on Day 14 then examined for fleas on Day 16. The cats were re-infested and examined again on Days 28 and 30, on Days 56 and 58 then bi-weekly until efficacy waned. At each infestation, 100 unfed adult fleas were applied along the dorsal rump of each cat. The negative control group (Group A) was infested before the test compound groups. Fleas were recovered by examining and combing the groups in the same order. Combs were washed and rinsed with alcohol between cats, and latex gloves were changed between treatment groups.
(§1) Flea counts were transformed by log (count +1), and geometric means were used to calculate percent efficacy for the treatments using (Yc−Yt)/Yc*100, where Yc and Yt equal mean counts for control and treated groups, respectively.

[2] = tested on: cat flea, Ctenocephalides felis; test: Duration of control in dogs treated with ectoparasiticides at up to 3x the conventional dose against the cat flea (Example 6); assay type: in vivo
From the text: In this evaluation, 32 mixed breed male or female dogs, aged 1 to 10 years, were used. Dogs were not treated with an ectoparasiticide for 60 days prior to the study. No drugs, baths, shampoos or pesticides were given to the dogs during the preconditioning phase or during the course of the study other than what is described in the protocol. At least 36 dogs were preconditioned for 14 days. All dogs were bathed with noninsecticidal shampoo (Day −12 to −8). On Day −7, each dog was infested with 100 unfed cat fleas, Ctenocephalides felis. On Day −5, each dog was thoroughly examined and then combed to remove and count fleas. Dogs were selected for inclusion in the study on the basis of flea retention and/or behavior. The 32 dogs with the highest flea counts were selected for the study, except for exclusion of dogs deemed not easily handled. The dogs were blocked by flea number retained, and randomly allocated within blocks into 8 groups of 4 dogs.
Applications for Groups B-H were administered using disposable syringes. Each dog received a spot of the appropriate formulation to the skin (by syringe without a needle) at the dorsal midline between the shoulder blades. Group A was left untreated. […] Observations for post-treatment adverse reactions, skin irritation and behavior of test formulations were made at four hours following administration of treatments. Thereafter, dogs were observed once daily on Days 1-14 for formulation acceptability, adverse reactions, or signs of skin irritation following treatment. Daily observations of the physical condition of the animals were made throughout the trial.
Dogs were infested with 100 adult cat fleas, Ctenocephalides felis, on Day 14 and then examined for live fleas on Day 16. The dogs were re-infested/examined on Days 28/30, 56/58, 70/72, 84/86 and then infested and examined again at 2 week intervals until efficacy waned. At each infestation, 100 unfed adult fleas were applied along the lateral midline of each dog. The negative control group (Group A) was infested before the test compound groups. Fleas were recovered by examining and combing the groups in the same order. Combs were washed and rinsed with alcohol between dogs. Plastic gloves and aprons were changed between treatment groups.
as §1

[3] = 10 mg imidacloprid/kg spot-on, Day 16
[4] = 10 mg imidacloprid/kg spot-on, Day 30
[5] = 10 mg imidacloprid/kg spot-on, Day 58
[6] = 10 mg imidacloprid/kg spot-on, Day 72
[7] = 10 mg imidacloprid/kg spot-on, Day 86
[8] = 10 mg imidacloprid/kg spot-on, Day 100
[9] = 30 mg imidacloprid/kg spot-on, Day 16
[10] = 30 mg imidacloprid/kg spot-on, Day 30
[11] = 30 mg imidacloprid/kg spot-on, Day 58
[12] = 30 mg imidacloprid/kg spot-on, Day 72
[13] = 30 mg imidacloprid/kg spot-on, Day 86
[14] = 30 mg imidacloprid/kg spot-on, Day 100
[15] = 10 mg imidacloprid/kg (1×) spot-on, Day 16
[16] = 10 mg imidacloprid/kg (1×) spot-on, Day 30
[17] = 10 mg imidacloprid/kg (1×) spot-on, Day 58
[18] = 10 mg imidacloprid/kg (1×) spot-on, Day 72
[19] = 10 mg imidacloprid/kg (1×) spot-on, Day 86
[20] = 30 mg imidacloprid/kg (3×) spot-on, Day 16
[21] = 30 mg imidacloprid/kg (3×) spot-on, Day 30
[22] = 30 mg imidacloprid/kg (3×) spot-on, Day 58
[23] = 30 mg imidacloprid/kg (3×) spot-on, Day 72
[24] = 30 mg imidacloprid/kg (3×) spot-on, Day 86
[25] = 7.5 mg fipronil/kg spot-on, Day 16
[26] = 7.5 mg fipronil/kg spot-on, Day 30
[27] = 7.5 mg fipronil/kg spot-on, Day 58
[28] = 7.5 mg fipronil/kg spot-on, Day 72
[29] = 7.5 mg fipronil/kg spot-on, Day 86
[30] = 7.5 mg fipronil/kg spot-on, Day 100
[31] = 22.5 mg fipronil/kg spot-on, Day 16
[32] = 22.5 mg fipronil/kg spot-on, Day 30
[33] = 22.5 mg fipronil/kg spot-on, Day 58
[34] = 22.5 mg fipronil/kg spot-on, Day 72
[35] = 22.5 mg fipronil/kg spot-on, Day 86
[36] = 22.5 mg fipronil/kg spot-on, Day 100
[37] = 7 mg fipronil/kg (1×) spot-on, Day 16
[38] = 7 mg fipronil/kg (1×) spot-on, Day 30
[39] = 7 mg fipronil/kg (1×) spot-on, Day 58
[40] = 7 mg fipronil/kg (1×) spot-on, Day 72
[41] = 7 mg fipronil/kg (1×) spot-on, Day 86
[42] = 7 mg fipronil/kg (1×) spot-on, Day 100
[43] = 7 mg fipronil/kg (1×) spot-on, Day 114
[44] = 21 mg fipronil/kg (3×) spot-on, Day 16
[45] = 21 mg fipronil/kg (3×) spot-on, Day 30
[46] = 21 mg fipronil/kg (3×) spot-on, Day 58
[47] = 21 mg fipronil/kg (3×) spot-on, Day 72
[48] = 21 mg fipronil/kg (3×) spot-on, Day 86
[49] = 21 mg fipronil/kg (3×) spot-on, Day 100

## O=[N+]([O-])/N=C1\NCCN1Cc1ccc(Cl)nc1 [imidacloprid]
[1]; [3]
  % Efficacy: 100.0%
  Flea comb count, G.M.: 0.0
[1]; [4]
  % Efficacy: 98.5%
  Flea comb count, G.M.: 1.0
[1]; [5]
  % Efficacy: 81.4%
  Flea comb count, G.M.: 10.0
[1]; [6]
  % Efficacy: 84.8%
  Flea comb count, G.M.: 10.0
[1]; [7]
  % Efficacy: 71.1%
  Flea comb count, G.M.: 16.7
[1]; [8]
  % Efficacy: 43.5%
  Flea comb count, G.M.: 33.3
[1]; [9]
  % Efficacy: 100.0%
  Flea comb count, G.M.: 0.0
[1]; [10]
  % Efficacy: 99.5%
  Flea comb count, G.M.: 0.3
[1]; [11]
  % Efficacy: 100.0%
  Flea comb count, G.M.: 0.0
[1]; [12]
  % Efficacy: 99.0%
  Flea comb count, G.M.: 0.7
[1]; [13]
  % Efficacy: 96.0%
  Flea comb count, G.M.: 2.3
[1]; [14]
  % Efficacy: 91.4%
  Flea comb count, G.M.: 5.1
[2]; [15]
  % Efficacy: 100.0%
  Flea Counts/Dog/Day (Geometric Means): 0.0
[2]; [16]
  % Efficacy: 100.0%
  Flea Counts/Dog/Day (Geometric Means): 0.0
[2]; [17]
  % Efficacy: 98.1%
  Flea Counts/Dog/Day (Geometric Means): 1.5
[2]; [18]
  % Efficacy: 80.3%
  Flea Counts/Dog/Day (Geometric Means): 15.4
[2]; [19]
  % Efficacy: 88.9%
  Flea Counts/Dog/Day (Geometric Means): 9.7
[2]; 10 mg imidacloprid/kg (1×) spot-on, Day 100
  % Efficacy: 78.3%
[2]; 10 mg imidacloprid/kg (1×) spot-on, Day 114
  % Efficacy: 52.6%
[2]; [20]
  % Efficacy: 100.0%
  Flea Counts/Dog/Day (Geometric Means): 0.0
[2]; [21]
  % Efficacy: 100.0%
  Flea Counts/Dog/Day (Geometric Means): 0.0
[2]; [22]
  % Efficacy: 100.0%
  Flea Counts/Dog/Day (Geometric Means): 0.0
[2]; [23]
  % Efficacy: 97.0%
  Flea Counts/Dog/Day (Geometric Means): 2.4
[2]; [24]
  % Efficacy: 96.4%
  Flea Counts/Dog/Day (Geometric Means): 3.1
[2]; 30 mg imidacloprid/kg (3×) spot-on, Day 100
  % Efficacy: 96.8%
[2]; 30 mg imidacloprid/kg (3×) spot-on, Day 114
  % Efficacy: 96.6%
[2]; 30 mg imidacloprid/kg (3×) spot-on, Day 128
  % Efficacy: 94.5%

## N#Cc1nn(-c2c(Cl)cc(C(F)(F)F)cc2Cl)c(N)c1[S+]([O-])C(F)(F)F (stereo not shown) [fipronil]
[1]; [25]
  % Efficacy: 97.7%
  Flea comb count, G.M.: 1.2
[1]; [26]
  % Efficacy: 96.4%
  Flea comb count, G.M.: 2.3
[1]; [27]
  % Efficacy: 78.8%
  Flea comb count, G.M.: 11.5
[1]; [28]
  % Efficacy: 81.1%
  Flea comb count, G.M.: 12.5
[1]; [29]
  % Efficacy: 66.9%
  Flea comb count, G.M.: 19.2
[1]; [30]
  % Efficacy: 14.3%
  Flea comb count, G.M.: 50.6
[1]; [31]
  % Efficacy: 97.8%
  Flea comb count, G.M.: 1.2
[1]; [32]
  % Efficacy: 100.0%
  Flea comb count, G.M.: 0.0
[1]; [33]
  % Efficacy: 93.8%
  Flea comb count, G.M.: 3.4
[1]; [34]
  % Efficacy: 94.7%
  Flea comb count, G.M.: 3.5
[1]; [35]
  % Efficacy: 64.9%
  Flea comb count, G.M.: 20.3
[1]; [36]
  % Efficacy: 31.5%
  Flea comb count, G.M.: 40.4
[2]; [37]
  % Efficacy: 99.8%
  Flea Counts/Dog/Day (Geometric Means): 0.2
[2]; [38]
  % Efficacy: 99.8%
  Flea Counts/Dog/Day (Geometric Means): 0.2
[2]; [39]
  % Efficacy: 100.0%
  Flea Counts/Dog/Day (Geometric Means): 0.0
[2]; [40]
  % Efficacy: 96.9%
  Flea Counts/Dog/Day (Geometric Means): 2.4
[2]; [41]
  % Efficacy: 97.4%
  Flea Counts/Dog/Day (Geometric Means): 2.3
[2]; [42]
  % Efficacy: 94.1%
  Flea Counts/Dog/Day (Geometric Means): 4.3
[2]; [43]
  % Efficacy: 84.7%
  Flea Counts/Dog/Day (Geometric Means): 10.2
[2]; [44]
  % Efficacy: 100.0%
  Flea Counts/Dog/Day (Geometric Means): 0.0
[2]; [45]
  % Efficacy: 100.0%
  Flea Counts/Dog/Day (Geometric Means): 0.0
[2]; [46]
  % Efficacy: 90.7%
  Flea Counts/Dog/Day (Geometric Means): 7.5
[2]; [47]
  % Efficacy: 85.4%
  Flea Counts/Dog/Day (Geometric Means): 11.4
[2]; [48]
  % Efficacy: 48.0%
  Flea Counts/Dog/Day (Geometric Means): 45.3
[2]; [49]
  % Efficacy: 39.5%
  Flea Counts/Dog/Day (Geometric Means): 44.1

## N#Cc1ccc(CC(=NNC(=O)Nc2ccc(OC(F)(F)F)cc2)c2cccc(C(F)(F)F)c2)cc1 (mixture of isomers) [metaflumizone, (E,Z)-2-[2-(4-cyanophenyl)-1-[3-(trifluoromethyl)phenyl]ethylidene]-N-[4-(tri-fluoromethoxy)phenyl]hydrazinecarboxamide]
[2]; metaflumizone 60 mg/kg (3×) spot-on, Day 128
  % Efficacy: 96.5%

— patent US20080194642A1, “HIGH DOSE, LONG-ACTING ECTOPARASITICIDE FOR EXTENDED CONTROL” (Wyeth, priority 2007, published 2008)
